This passage reports IC50 results from patent publication EP1377579B1 (Aventis Pharmaceuticals Inc., priority 2000, dated 2002).

The target in assay [1] is cdk4/cyclin D1 (Homo sapiens, UniProt P11802). Briefly: Cyclin-dependent kinase assay, cdk4/cyclin D1. The conditions noted are these: cyclin D1/cdk4; GST-pRb substrate, 10 µM ATP. The format is biochemical.
In assay [2] the test system is MDA-MB-435. Nature of the assay: In vitro proliferation assay (MTT), MDA-MB-435. The conditions noted are these: value (SD, n) where given, read-out: MB-435 Breast (IC50 µM). The assay is classed as cell-based, human. In outline: (§1)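 IC50 values come from absorbance at 570 nm after MTT staining of cells grown with compound for 3 days. Seeding density was 1000 to 2500 cells/well, depending on the line.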

Assay [3] has as its system PC-3. Nature of the assay: In vitro proliferation assay (MTT), PC-3. The assay is classed as cell-based, human. The conditions noted are these: value (SD, n) where given, read-out: PC-3 Prostate (IC50 µM). An outline of the steps: as §1
Assay [4] has as its target cdk1/cyclin B (Homo sapiens, UniProt P06493). Nature of the assay: Cyclin-dependent kinase assay, cdk1/cyclin B. As to conditions: CDK1 IC50, nM, Histone H1, 10 µM ATP.
Assay [5] has as its target cdk2/cyclin E (Homo sapiens, UniProt P24941). Briefly: Cyclin-dependent kinase assay, cdk2/cyclin E. The conditions noted are these: CDK2 IC50, nM, GST-pRb substrate, 10 µM ATP.
Where [6] appears, read: Homo sapiens, MDA-MB-435, MTT assay.

Counter-ions that a name gives are not always drawn. Like-named read-outs stand apart in the source and are kept apart here. Where only a bound is given, the exact number is not on record here.

cdk1/cyclin B, sequence (P06493 whole entry): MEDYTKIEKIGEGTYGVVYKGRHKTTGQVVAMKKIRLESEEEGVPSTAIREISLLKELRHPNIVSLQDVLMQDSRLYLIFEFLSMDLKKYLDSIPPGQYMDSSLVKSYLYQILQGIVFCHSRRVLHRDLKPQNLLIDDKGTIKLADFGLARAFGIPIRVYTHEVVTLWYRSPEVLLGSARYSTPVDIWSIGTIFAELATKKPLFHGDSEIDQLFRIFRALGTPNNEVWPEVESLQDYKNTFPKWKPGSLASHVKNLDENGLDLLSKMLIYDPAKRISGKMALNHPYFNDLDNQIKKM
cdk1/cyclin B, sequence (P14635 whole entry partner): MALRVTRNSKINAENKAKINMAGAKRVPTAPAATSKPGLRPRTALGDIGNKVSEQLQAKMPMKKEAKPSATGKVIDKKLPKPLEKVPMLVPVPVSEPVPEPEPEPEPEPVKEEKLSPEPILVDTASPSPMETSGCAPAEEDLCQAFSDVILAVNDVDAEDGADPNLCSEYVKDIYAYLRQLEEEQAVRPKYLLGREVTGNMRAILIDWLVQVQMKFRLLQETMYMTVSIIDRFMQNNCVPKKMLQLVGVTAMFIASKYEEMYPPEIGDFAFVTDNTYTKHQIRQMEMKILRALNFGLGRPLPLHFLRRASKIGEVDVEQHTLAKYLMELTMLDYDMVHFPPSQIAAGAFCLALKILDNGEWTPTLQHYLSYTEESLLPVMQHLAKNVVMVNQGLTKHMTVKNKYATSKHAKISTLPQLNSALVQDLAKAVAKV
cdk4/cyclin D1, sequence (P11802 whole entry): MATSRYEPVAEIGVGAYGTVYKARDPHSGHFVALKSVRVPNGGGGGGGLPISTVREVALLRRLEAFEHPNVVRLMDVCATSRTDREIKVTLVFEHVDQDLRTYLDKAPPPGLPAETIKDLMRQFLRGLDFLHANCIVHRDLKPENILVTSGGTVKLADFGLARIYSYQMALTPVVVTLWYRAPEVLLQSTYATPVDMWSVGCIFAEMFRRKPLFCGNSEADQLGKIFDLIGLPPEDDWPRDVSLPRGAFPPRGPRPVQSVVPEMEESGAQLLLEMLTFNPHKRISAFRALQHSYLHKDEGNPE
cdk4/cyclin D1, sequence (P24385 whole entry partner): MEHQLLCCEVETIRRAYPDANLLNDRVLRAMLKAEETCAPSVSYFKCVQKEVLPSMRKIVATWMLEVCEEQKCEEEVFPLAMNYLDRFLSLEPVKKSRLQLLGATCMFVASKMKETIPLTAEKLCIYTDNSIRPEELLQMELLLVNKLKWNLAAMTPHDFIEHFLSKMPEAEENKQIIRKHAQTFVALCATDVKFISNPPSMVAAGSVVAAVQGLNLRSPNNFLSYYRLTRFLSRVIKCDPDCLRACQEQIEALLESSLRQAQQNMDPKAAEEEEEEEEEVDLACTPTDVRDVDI

As a reminder, the IC50 is the midpoint of a concentration-inhibition curve. As to `N[C@H]1CC[C@H](Nc2nc(NC3CCN(C(=O)c4cccc(Br)c4)CC3)c3ncn(C4CCCC4)c3n2)CC1` [compound 71, trans-1-{4-[2-(4-Amino-cyclohexylamino)-9-cyclopentyl-9H-purin-6-ylamino]-piperidin-1-yl}-1-(3-bromophenyl)-methanone], the IC50 in assay [1] stood at 698 nM; in assay [2] (setting [6]) it was 0.64 µM; in assay [3] (Homo sapiens, PC-3, MTT assay) it was 0.61 µM; in assay [4] it was 53 nM; in assay [5], 91 nM.

`N[C@H]1CC[C@H](Nc2nc(NC3CCN(C(=O)c4cccc(Cl)c4)CC3)c3ncn(C4CCCC4)c3n2)CC1` [compound 72, trans-1-{4-[2-(4-Amino-cyclohexylamino)-9-cyclopentyl-9H-purin-6-ylamino]-piperidin-1-yl}-1-(3-chloro-phenyl)-methanone]: the IC50 turned out to be 864 nM in assay [1]; 0.03 µM in assay [2] (MTT assay); 0.03 µM in assay [3] (MTT assay); 51 nM in assay [4]; 89 nM in assay [5].

On to `Cc1cccc(C(=O)N2CCC(Nc3nc(N[C@H]4CC[C@H](N)CC4)nc4c3ncn4C3CCCC3)CC2)c1` [compound 73, trans-1-{4-[2-(4-Amino-cyclohexylamino)-9-cyclopentyl-9H-purin-6-ylamino]-piperidin-1-yl}-1-(3-methyl-phenyl)-methanone], for which the IC50 came out at 410 nM in assay [1]; 1.31 µM in assay [2] (setting [6]); 1.35 µM in assay [3] (Homo sapiens, PC-3, MTT assay); 100 nM in assay [4]; 73 nM in assay [5].

Regarding `N[C@H]1CC[C@H](Nc2nc(NC3CCN(C(=O)c4ccc(Br)cc4)CC3)c3ncn(C4CCCC4)c3n2)CC1` [compound 74, trans-1-{4-[2-(4-Amino-cyclohexylamino)-9-cyclopentyl-9H-purin-6-ylamino]-piperidin-1-yl}-1-(4-bromo-phenyl)-methanone], the IC50 was found to be 560 nM in assay [1]; 1.07 µM in assay [2] (setting [6]); 1.25 µM in assay [3] (Homo sapiens, PC-3, MTT assay); 62 nM in assay [4]; 239 nM in assay [5].

In the case of `N[C@H]1CC[C@H](Nc2nc(NC3CCN(C(=O)c4ccc(Cl)cc4)CC3)c3ncn(C4CCCC4)c3n2)CC1` [compound 75, trans-1-{4-[2-(4-Amino-cyclohexylamino)-9-cyclopentyl-9H-purin-6-ylamino]-piperidin-1-yl}-1-(4-chloro-phenyl)-methanone], the IC50 in assay [1] turned out to be 801 nM; in assay [2] (setting [6]), 1.38 µM; in assay [3] (Homo sapiens, PC-3, MTT assay), 1.7 µM; in assay [4], 71 nM; in assay [5] it was 58 nM.

In the case of `N[C@H]1CC[C@H](Nc2nc(NC3CCN(C(=O)c4ccc(I)cc4)CC3)c3ncn(C4CCCC4)c3n2)CC1` [compound 76, trans-1-{4-[2-(4-Amino-cyclohexylamino)-9-cyclopentyl-9H-purin-6-ylamino]-piperidin-1-yl}-1-(4-iodo-phenyl)-methanone], the IC50 in assay [1] was 787 nM; in assay [2] (setting [6]), 1.47 µM; in assay [3] (Homo sapiens, PC-3, MTT assay) it was 1.04 µM; in assay [4] it was 57 nM; in assay [5] it was 179 nM.

Take `Cc1ccc(C(=O)N2CCC(Nc3nc(N[C@H]4CC[C@H](N)CC4)nc4c3ncn4C3CCCC3)CC2)cc1` [compound 77, trans-1-{4-[2-(4-Amino-cyclohexylamino)-9-cyclopentyl-9H-purin-6-ylamino]-piperidin-1-yl}-1-(4-methyl-phenyl)-methanone]: the IC50 in assay [1] amounted to 606 nM; in assay [2] (setting [6]), 1.03 µM; in assay [3] (Homo sapiens, PC-3, MTT assay), 1.19 µM; in assay [4], 100 nM; in assay [5], 71 nM.

Take `N[C@H]1CC[C@H](Nc2nc(NC3CCN(C(=O)c4ccc(Cl)cc4Cl)CC3)c3ncn(C4CCCC4)c3n2)CC1` [compound 78, trans-1-{4-[2-(4-Amino-cyclohexylamino)-9-cyclopentyl-9H-purin-6-ylamino]-piperidin-1-yl}-1-(2,4-dichloro-phenyl)-methanone]: the IC50 in assay [1] was 523 nM; in assay [2] (setting [6]), 1.56 µM; in assay [3] (Homo sapiens, PC-3, MTT assay), 1.53 µM; in assay [4], 101 nM; in assay [5], 155 nM.

As for `N[C@H]1CC[C@H](Nc2nc(NC3CCN(C(=O)c4cc(Cl)cc(Cl)c4)CC3)c3ncn(C4CCCC4)c3n2)CC1` [compound 79, trans-1-{4-[2-(4-Amino-cyclohexylamino)-9-cyclopentyl-9H-purin-6-ylamino]-piperidin-1-yl}-1-(3,5-dichloro-phenyl)-methanone], the IC50 worked out at 483 nM in assay [1]; 0.25 µM in assay [2] (setting [6]); 0.27 µM in assay [3] (Homo sapiens, PC-3, MTT assay); 44 nM in assay [4]; 73 nM in assay [5].

As to `CC(C)n1cnc2c(NC3CCN(C(=O)COc4ccccc4)CC3)nc(N[C@H]3CC[C@H](N)CC3)nc21` [compound 80, trans-1-{4-[2-(4-Amino-cyclohexylamino)-9-isopropyl-9H-purin-6-ylamino]-piperidin-1-yl}-2-phenoxy-ethanone dihydrochloride], the IC50 was 8100 nM in assay [1]; more than 50 µM in assay [2] (setting [6]); more than 50 µM in assay [3] (Homo sapiens, PC-3, MTT assay); 244 nM in assay [4]; 39 nM in assay [5].

On to `CCOC(=O)N1CCC(Nc2nc(N[C@H]3CC[C@H](N)CC3)nc3c2ncn3C(C)C)CC1` [compound 104, trans-4-[2-(4-Amino-cyclohexylamino)-9-isopropyl-9H-purin-6-ylamino]-piperidine-1-carboxylic acid ethyl ester dihydrochloride], for which the IC50 in assay [1] is 8000 nM; in assay [2] (setting [6]), 2.27 µM; in assay [3] (Homo sapiens, PC-3, MTT assay) it was 1.21 µM; in assay [4] it was 750 nM; in assay [5], 731 nM.

As to `CC(=O)Nc1nc(C)c(S(=O)(=O)N2CCC(Nc3nc(N[C@H]4CC[C@H](N)CC4)nc4c3ncn4C3CCCC3)CC2)s1` [compound 113, trans-N-(5-{4-[2-(4-Amino-cyclohexylamino)-9-cyclopentyl-9H-purin-6-ylamino]-piperidine-1-sulfonyl}-4-methyl-thiazol-2-yl)-acetamide dihydrochloride], the IC50 in assay [1] worked out at 39 nM; in assay [2] (setting [6]), 6.54 µM; in assay [3] (Homo sapiens, PC-3, MTT assay), 5.89 µM; in assay [4], 18 nM; in assay [5], 7 nM.

As to `N[C@H]1CC[C@H](Nc2nc(NC3CCN(S(=O)(=O)c4ccc(Br)cc4)CC3)c3ncn(C4CCCC4)c3n2)CC1` [compound 114, trans-N^2-(4-Amino-cyclohexyl)-9-cyclopentyl-N^6-[1-(4-bromo-benzenesulfonyl)-piperidin-4-yl]-9H-purine-2,6-diamine dihydrochloride], the IC50 is 80 nM in assay [1]; 0.33 µM in assay [2] (setting [6]); 0.48 µM in assay [3] (Homo sapiens, PC-3, MTT assay); 5 nM in assay [4]; 15 nM in assay [5].

In the case of `CC(=O)Nc1ccc(S(=O)(=O)N2CCC(Nc3nc(N[C@H]4CC[C@H](N)CC4)nc4c3ncn4C3CCCC3)CC2)cc1` [compound 115, trans-N-(4-{4-[2-(4-Amino-cyclohexylamino)-9-cyclopentyl-9H-purin-6-ylamino]-piperidine-1-sulfonyl}-phenyl)-acetamide dihydrochloride], the IC50 in assay [1] was determined as 14 nM; in assay [2] (setting [6]), 4.24 µM; in assay [3] (Homo sapiens, PC-3, MTT assay), 5.1 µM; in assay [4], 5 nM; in assay [5], 5 nM.

Regarding `N[C@H]1CC[C@H](Nc2nc(NC3CCN(S(=O)(=O)c4ccc5ccccc5c4)CC3)c3ncn(C4CCCC4)c3n2)CC1` [compound 116, trans-N^2-(4-Amino-cyclohexyl)-9-cyclopentyl-N^6-[1-(naphthalene-2-sulfonyl)-piperidin-4-yl]-9H-purine-2,6-diamine dihydrochloride], the IC50 came to 382 nM in assay [1]; 0.64 µM in assay [2] (setting [6]); 1.15 µM in assay [3] (Homo sapiens, PC-3, MTT assay); 18 nM in assay [4]; 32 nM in assay [5].

As for `N[C@H]1CC[C@H](Nc2nc(NC3CCN(S(=O)(=O)/C=C/c4ccccc4)CC3)c3ncn(C4CCCC4)c3n2)CC1` [compound 118, trans-N^2-(4-Amino-cyclohexyl)-9-cyclopentyl-N^6-[1-((E)-2-phenyl-ethenesulfonyl)-piperidin-4-yl]-9H-purine-2,6-diamine dihydrochloride], the IC50 in assay [1] is 38 nM; in assay [2] (setting [6]), 0.28 µM; in assay [3] (Homo sapiens, PC-3, MTT assay) it was 0.38 µM; in assay [4] it was 22 nM; in assay [5] it was 38 nM.

`N[C@H]1CC[C@H](Nc2nc(NC3CCN(S(=O)(=O)Cc4ccccc4)CC3)c3ncn(C4CCCC4)c3n2)CC1` [compound 119, trans-N^2-(4-Amino-cyclohexyl)-9-cyclopentyl-N^6-(1-phenylmethanesulfonyl-piperidin-4-yl)-9H-purine-2,6-diamine dihydrochloride]: the IC50 in assay [1] came to 65 nM; in assay [2] (setting [6]), 0.4 µM; in assay [3] (Homo sapiens, PC-3, MTT assay), 0.52 µM; in assay [4], 25 nM; in assay [5], 31 nM.

As to `N[C@H]1CC[C@H](Nc2nc(NC3CCN(S(=O)(=O)c4c(Cl)cccc4Cl)CC3)c3ncn(C4CCCC4)c3n2)CC1` [compound 121, trans-N^2-(4-Amino-cyclohexyl)-9-cyclopentyl-N^6-[1-(2,6-dichloro-benzenesulfonyl)-piperidin-4-yl]-9H-purine-2,6-diamine dihydrochloride], the IC50 in assay [1] worked out at 83 nM; in assay [2] (setting [6]) it was 0.66 µM; in assay [3] (Homo sapiens, PC-3, MTT assay) it was 0.82 µM; in assay [4], 120 nM; in assay [5] it was 50 nM.
